The record followed here is EP0733365A2, “Use of benzoquinolin-3-ones for the treatment and prevention of prostatic cancer” (priority 1995, dated 1996).

“And” between values parts separate entries of the source, which are not always exact repeats. Equal values may be shown once.

The first test concerns the target T1, Type I 5α-reductase (Homo sapiens, UniProt P18405).
T1 construct: Scalp punch biopsies from graft recipient sites were obtained; from tissue; host or cells: human scalp skin (punch biopsies from hair transplant procedures); 100,000 x g pellet of the homogenate
T1 sequence (P18405 1-259): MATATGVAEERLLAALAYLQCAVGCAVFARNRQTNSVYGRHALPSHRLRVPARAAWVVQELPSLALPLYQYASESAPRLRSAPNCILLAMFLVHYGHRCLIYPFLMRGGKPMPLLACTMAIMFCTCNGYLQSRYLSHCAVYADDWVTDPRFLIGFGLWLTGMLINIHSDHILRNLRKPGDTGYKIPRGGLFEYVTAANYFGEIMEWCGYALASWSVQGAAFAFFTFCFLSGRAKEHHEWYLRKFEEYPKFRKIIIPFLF
As to the kind of experiment: Human Type I steroid 5α-reductase homogenate assay (conversion of [3H]-testosterone to [3H]-DHT and other 5α-reduced metabolites). In kind it is biochemical. The settings on record: 0.3 µM concentration of compound, compared to control reaction mixtures. The method, then:
Methodology of Human Type I Steroid 5α-Reductase Assays
Preparation of Type I 5α-Reductase from Human Scalp: Scalp punch biopsies from graft recipient sites were obtained, following the proper Informed Consent and Institutional Review Board guidelines, from human hair transplant procedures immediately after surgery and were frozen on dry ice and stored at -80°C. Approximately 60-75 punches from one surgical procedure were used to generate an enzyme preparation. The subcutaneous tissue was cut away and discarded. The skin was frozen with liquid nitrogen and pulverized to powder. The powder was homogenized in 30 mL of ice-cold buffer (20 mM Tris-HCl, pH 7.5) using a Brinkmann Polytron (Westbury, NY) with a PTA 10-S probe and a setting of 7. The homogenization procedure consisted of four 15 second pulses. Connective tissue was cleared from the probe with forceps between pulses. The homogenate was then filtered through cheese cloth and the filtrate centrifuged at 100,000 x g for one hour in a Beckman L8-60M ultracentrifuge. The pellet was resuspended by homogenization with a Dounce homogenizer using the same buffer solution. An aliquot was taken for protein determination by the Lowry method, Lowry, et al., Protein Measurement with the Folin Phenol Reagent, J. Biol. Chem., 193, 265-75 (1951). Aliquots of the enzyme preparation were stored at -80° until use. Human 5α-Reductase Homogenate Assay: This enzyme assay is based on the conversion of [^3H]-testosterone to [^3H]-5α -dihydrotestosterone (DHT) and other 5α-reduced metabolites. […] In a total volume of 1.0 mL, the Type I assay contained 2.6 µCi [^3H]-testosterone (50 nM), 500 µM of reduced nicotine adenine dinucleotide phosphate, 100 mM Tris-HCl, pH 7.5, (in Type II assays, 40 mM sodium acetate at pH 5.5 is used instead of Tris-HCl) and test compounds as indicated. Test compounds were added in 20 µL of dimethylsulfoxide (20 µL of dimethylsulfoxide was added to blanks and controls). The reaction was initiated by the addition of 0.5 mg of Type I 5α-reductase. The reaction mixture was incubated at 25° for 180 min, and terminated by the addition of 1 mL ice-cold stopping solution. The stopping solution contained 40 µM each of non-radioactive testosterone, DHT, androstenedione, androstanedione, androsterone, androstan-3β17β- diol, and androstan-3α,17β-diol. The samples were prepared for high performance liquid chromatography by solid phase extraction. Disposable solid matrix extraction columns (C-18 reversed phase, 6 mL, 500 mg; Bond Elut™ from Analytichem International; Harbor City, CA) were conditioned by washing with 5 mL of methanol followed by 5 mL of deionized water. The reaction mixtures were then applied to the columns. The columns were subsequently washed with 5 mL of acetone:water (1:4), followed by 0.3 mL of methanol. The samples were then eluted with 3 mL of methanol and collected in 20 mL scintillation vials. Three mL of water was then added to each scintillation vial. The solutions were then transferred to tubes and centrifuged for 30 min at 1000 x g to remove any particulate material before chromatography. The [^3H]-testosterone substrate and its metabolites were separated by chromatography using a C-18 reversed phase column (Beckman Ultrasphere 5µm spherical 80A pore, part no. 235329, 4.6 mm i.d. x […]) with an isocratic mobile phase (46 water: 46 methanol: 8 tetrahydrofuran by volume). The column temperature was maintained at 35° and the flow rate was 1.5 mL/min. A 400 µL aliquot was injected onto the column and radioactivity was determined using a Beckman 171 in-line flow radioisotope detector in conjunction with Rainin Dynamax™ software and a Macintosh computer. The flow rate of the Atomflow™ scintillation fluid was 4.5 mL / min.
In the case of “(+)-(4aR)-(10bR)-4-methyl-8-(4-fluoro-3-trifluoromethylphenyl)-10b-methyl-1,2,3,4,4a,5,6,10b-octahydrobenzo[f]quinolin-3-one [Example 46]”, the “percent inhibition of Type I 5AR” value is recorded as 3%.
On the same count and under the same terms, the same measure for “(+)-(4aR)-(10bR)-4-methyl-8-(2aR,4S-1-benzoyl-4-amino-2,2a,3,4-tetrahydrobenz[cd]-1H-indol-7-yl)-10b-methyl-1,2,3,4,4a,5,6,10b-octahydrobenzo[f]quinolin-3-one [Example 226]”: 16%; for “(+)-(4aR)-(10bR)-4-methyl-8-(3-[1-benzyl-4-piperidinylcarboxamidolphenyl)-10b-methyl-1,2,3,4,4a,5,6,10b-octahydrobenzo[f]quinolin-3-one [Example 209]”: 24%; for “(+)-(4aR)-(10bR)-4-methyl-8-benzyloxycarbonyl-10b-methyl-1,2,3,4,4a,5,6,10b-octahydrobenzo[f]quinolin-3-one [Example 144]”: 90%.
On the same count and under the same terms, the value for `CN1C(=O)CC[C@]2(C)c3ccc(Sc4nc5c(ccc6ccccc65)s4)cc3CC[C@@H]12` [Example 163, (+)-(4aR)-(10bR)-4-methyl-8-(2-naphtho〈1,2-d〉-thiazolylthio)-10b-methyl-1,2,3,4,4a 5,6,10b-octahydrobenzo[f]-quinolin-3-one] was 80%.
On the same count and under the same terms, the value for `Cc1cccc2sc(Sc3ccc4c(c3)CC[C@H]3N(C)C(=O)CC[C@]43C)nc12` [Example 159, (+)-(4aR)-(10bR)-4-methyl-8-(4-methyl-2-benzothiazolylthio)-10b-methyl-1,2,3,4,4a,5,6,10b-octahydrobenzo[f]quinolin-3-one] was 87, 87%.
Regarding `CN1C(=O)CC[C@]2(C)c3ccc(-c4ccc(-c5ccc(NC(=O)C(C)(C)C)s5)cc4)cc3CC[C@@H]12` [Example 222, (+)-(4aR)-(10bR)-4-methyl-8-(4-[(2-t-butylcarbonylamino]-5-thienyl]phenyl)-10b-methyl-1,2,3,4,4a,5,6,10b-octahydrobenzo[f]quinolin-3-one], the “percent inhibition of Type I 5AR” value is recorded as 86%.
For the compound `C[C@]12CCC(=O)N[C@@H]1CCc1cc(-c3cnc4ccccc4c3)ccc12` [Example 196, (+)-(4aR)-(10bR)-8-(3-quinolinyl)-10b-methyl-1,2,3,4,4a,-5,6,10b-octahydrobenzo[f]quinolin-3-one], the “percent inhibition of Type I 5AR” value came to 11%.
On the same count and under the same terms, the same measure for “(+)-(4aR)-(10bR)-4-methyl-8-(2aR,4S-1-benzoyl-4-dipropylamino-2,2a,3,4-tetrahydrobenz[cd]-1H-indol-7-yl)-10b-methyl-1,2,3,4,4a,5,6,10b-octahydrobenzo[f]quinolin-3-one [Example 225]”: 47%; for “(+)-(4aR)-(10bR)-4-methyl-8-(2-[6-benzyloxy]naphthyl)-10b-methyl-1,2,3,4,4a,5,6,10b-octahydrobenzo[f]quinolin-3-one [Example 62]”: 45%.

The test is the same for the next values; noted with them: 0.3 µM concentration of compound, compared to control reaction mixtures; 0.3 µM.
Consider `CN1C(=O)CC[C@]2(C)c3ccc(C=Cc4ccccc4)cc3CC[C@@H]12` [Example 285, (4aR)-(10bR)-4,10b-dimethyl-8-(2-phenylethenyl)-1,2,3,4,4a,5,6,10b-octahydrobenzo[f]quinolin-3-one], for which the “percent inhibition of Type I 5AR” value is 93%.
On the same count and under the same terms, the value for `CN1C(=O)CC[C@]2(C)c3ccc(Sc4nc5c(Cl)cccc5s4)cc3CC[C@@H]12` [Example 164, (+)-(4aR)-(10bR)-4-methyl-8-(4-chloro-2-benzothiazolylthio)-10b-methyl-1,2,3,4,4a,5,6,10b-octahydrobenzo[f]quinolin-3-one] was 87%.
The same measure, in the same setting: the value for `CN1C(=O)CC[C@]2(C)c3ccc(-c4cccc5ccccc45)cc3CC[C@@H]12` [Example 53, (+)-(4aR)-(10bR)-4-methyl-8-(1-naphthyl)-10b-methyl-1,2,3,4,4a,5,6,10b-octahydrobenzo[f]quinolin-3-one] was 100% and 66%; that for `CN1C(=O)CC[C@]2(C)c3ccc(CCc4ccccc4)cc3CC[C@@H]12` [Example 280, (4aR)-(10bR)-4,10b-dimethyl-8-(2-phenylethyl)-1,2,3,4,4a,5,6,10b-octahydrobenzo[f]quinolin-3-one] was 100%.
Still for that read-out and setting: the same measure for `CN1C(=O)CC[C@]2(C)c3ccc(-c4cc(F)c(F)c(F)c4)cc3CC[C@@H]12` [Example 206, (+)-(4aR)-(10bR)-4-methyl-8-(3,4,5-trifluorophenyl)-10b-methyl-1,2,3,4,4a,5,6,10b-octahydrobenzo[f]quinolin-3-one]: 100%.
For `CN1C(=O)CC[C@]2(C)c3ccc(-c4ccc(Cl)cc4)cc3CC[C@@H]12` [Example 50, (+)-(4aR)-(10bR)-4-methyl-8-(4-chlorophenyl)-10b-methyl-1,2,3,4,4a,5,6,10b-octahydrobenzo[f]quinolin-3-one], the “percent inhibition of Type I 5AR” value is on record as 94%.

Staying with this test, now noted: 0.3 µM concentration of compound, compared to control reaction mixtures; read-out: percent inhibition of Type I 5AR.
Consider `CN1C(=O)CC[C@]2(C)c3ccc(/C=C/c4ccc5ccccc5n4)cc3CC[C@@H]12` [Example 283, (4aR)-(10bR)-4,10b-dimethyl-8-(2-[2-quinolinyl]ethenyl)-1,2,3,4,4a,5,6,10b-octahydrobenzo[f]quinolin-3-one], for which the inhibition at 0.3 µM was determined as 87%.
Still for that read-out and setting: the same measure for `CN1C(=O)CC[C@]2(C)c3ccc(-c4ccc(NS(C)(=O)=O)cc4)cc3CC[C@@H]12` [Example 123, (+)-(4aR)-(10bR)-4-methyl-8-(4-methylsulfonamidophenyl)-10b-methyl-1,2,3,4,4a,5,6,10b-octahydrobenzo[f]quinolin-3-one]: 10%.
The same measure, in the same setting: the value for `CN1C(=O)CC[C@]2(C)c3ccc(/C=C/c4cnc5ccccc5c4)cc3CC[C@@H]12` [Example 282, (4aR)-(10bR)-4,10b-dimethyl-8-(2-[3-quinolinyl]ethenyl)-1,2,3,4,4a,5,6,10b-octahydrobenzo[f]quinolin-3-one] was 75%; that for `C[C@]12CCC(=O)N[C@@H]1CCc1cc(Sc3ccccc3Cl)ccc12` (single isomer, unassigned) [Example 7] was 49%.
Consider `CN1C(=O)CC[C@]2(C)c3ccc(-c4ccc5c(c4)CCC5O)cc3CC[C@@H]12` (single isomer, unassigned; (+)) [Example 245], for which the inhibition at 0.3 µM is 54%.
Consider `C[C@]12CCC(=O)N[C@@H]1CCc1cc(-c3cnc4ccccc4c3)ccc12` (single isomer, unassigned) [Example 45], for which the inhibition at 0.3 µM turned out to be 11%.
Still for that read-out and setting: the value for `Cc1cccc2sc(Sc3ccc4c(c3)CC[C@H]3N(C)C(=O)CC[C@]43C)nc12` [Example 159, (+)-(4aR)-(10bR)-4-methyl-8-(4-methyl-2-benzothiazolylthio)-10b-methyl-1,2,3,4,4a,5,6,10b-octahydrobenzo[f]quinolin-3-one] was 87%; that for `C[C@]12C=CC(=O)N[C@@H]1CCc1cc(-c3cc4ccccc4cn3)ccc12` [Example 142, (+)-(4aR)-(10bR)-8-(3-isoquinolinyl)-10b-methyl-3,4,4a,5,6,10b-hexahydrobenzo[f]quinolin-3-one] was 22%.

The same test, now with this note: read-out: percent inhibition of Type I 5AR, 0.3 µM concentration of compound, compared to control reaction mixtures.
For the compound `CN1C(=O)CC[C@]2(C)c3ccc(C=Cc4ccccc4)cc3CC[C@@H]12` [Example 279, (4aR)-(10bR)-4,10b-dimethyl-8-(2-phenylethenyl)-1,2,3,4,4a,5,6,10b-octahydrobenzo[f]quinolin-3-one], the inhibition at 0.3 µM is 85%.
